# Literature values as cited in patent US12564599B2, “Pharmaceutical composition comprising tetrahydrocannabivarin for the prevention and treatment of overweight” (CepVentures International Corporation, priority 2019, dated 2026).
# Conditions: over a 6 month or a 1 year period
smiles,measurement,value
CC(C)CC(N(C)C)C1(c2ccc(Cl)cc2)CCC1 (stereo not shown) [Sibutramine],reduces body weight,about 10%
